Experimental data taken from patent US20070225303A1, “8-Oxoadenine Compound” (priority 2004, published 2007).

Key:
[1] = tested on: spleen cells; experiment: cells; assay type: cell-based; conditions: 24 h, read-out: Minimum effective concentration (interferon inducing activity), CD(SD)IGS rat spleen cells, 24 hours incubation; interferon in supernatant by L929/vesicular stomatitis virus bioassay
[2] = Metabolic stability test using human plasma; assay type: in vitro ADME; conditions: 1 μM test compound, 37° C. for 15 minutes, residual amount per pre-metabolization concentration as 100%
Procedure: Plasma was prepared from fresh human blood and the test compound (containing 1% DMSO) of the final concentration of 1 μM was added thereto.
After a metabolic reaction by plasma esterase was conducted at 37° C. for 15 minutes, the test compound was extracted with ethyl acetate, and quantitatively analyzed by reverse phase HPLC. The metabolic stability of the test compound was shown by the residual amount (%) per the concentration of pre-metabolization as 100%.

[3] = Metabolic stability test on rat liver S9; assay type: in vitro ADME; conditions: rat liver S9 with NADPH, 1 μM test compound, 37° C.; residual rate after reaction, LC/MS
Procedure: The reaction using liver S9 of rat was conducted on a 96-well plate by using a screening robot by Tecan Company. S9 solution was prepared by adding 250 mM Kpi (pH 7.4) 20 ml and deionized water 20 ml to 10 ml of liver S9 of rat, a Cofactor solution was prepared by dissolving NADPH 220 mg in deionized water 40.5 ml (Final 6 mM), and IS (Internal Standard) solution was prepared by adding IS solution (1 mM DMSO solution) 300 μl to acetonitrile 30 ml (100 times dilution). The test compound (1 μM DMSO solution) was dissolved in an incubator at 37° C. After each 35 μL was poured in a 96-well plate (24 samples/plate), plates (sample plates, 96-well plates for dilution, each Deep well plates for the reaction and the recovery, plates for extraction of a solid phase) and reagents (S9 solution, Cofactor solution, IS (Internal Standard) solution, Stop solution, acetonitrile for elution) were set to the specified position in the booth of the robot, and the reaction started (the concentration of the test compounds was 1 μM). Incubation was conducted under shaking at 37° C., the solid phase was extracted (at the same time, the internal standard for analysis was added). To the recovered samples 200 μL/well was added 50 μL of acetonitrile per each well, and to 2 plates of FALCON Deep well were poured 100 μL/well of the solution per well. By subjecting to the LC/MS analysis, the chromatography of the test compound and the internal standard were described and the peak area was calculated. And then, the stability (residual rate after reaction) was calculated.

Compound | minimal effective concentration [1] | Residual rate [2] | Residual rate [3]
Nc1nc(SCCCO)nc2c1nc(O)n2Cc1cccc(CC(=O)O)c1 [Comparative example 1, 9-(3-Carboxymethylbenzyl)-8-hydroxy-2-(3-hydroxypropylthio)adenine, reference compound] | > 1 µM | – | –
Nc1nc(SCCCCO)nc2c1nc(O)n2Cc1cccc(CC(=O)O)c1 [Comparative example 2, 9-(3-Carboxymethylbenzyl)-8-hydroxy-2-(4-hydroxybutylthio)adenine, reference compound] | 1 µM | – | –
COC(=O)Cc1cccc(Cn2c(O)nc3c(N)nc(SCCCO)nc32)c1 [Example 1, 8-Hydroxy-2-(3-hydroxypropylthio)-9-(3-methoxycarbonylmethylbenzyl)adenine] | 0.01 µM | <1% | –
COC(=O)Cc1cccc(Cn2c(O)nc3c(N)nc(SCCCCO)nc32)c1 [Example 2, 8-Hydroxy-2-(4-hydroxybutylthio)-9-(3-methoxycarbonylmethylbenzyl)adenine] | 0.01 µM | <1% | –
COC(=O)Cc1cccc(Cn2c(O)nc3c(N)nc(OCCCO)nc32)c1 [Example 4, 8-Hydroxy-2-(3-hydroxypropoxy)-9-(3-methoxycarbonylmethylbenzyl)adenine] | 0.03 µM | 3.2% | 8%
COC(=O)Cc1cccc(Cn2c(O)nc3c(N)nc(OCCO)nc32)c1 [Example 5, 8-Hydroxy-2-(2-hydroxyethoxy)-9-(3-methoxycarbonylmethylbenzyl)adenine] | 0.1 µM | 5.8% | –
CCCCOc1nc(N)c2nc(O)n(CCc3cccc(CC(=O)OC)c3)c2n1 [Example 9, 2-Butoxy-8-hydroxy-9-[2-(3-methoxycarbonylmethylphenyl)ethyl]adenine] | 0.03 µM | 7.9% | 0%
CCCCOc1nc(N)c2nc(O)n(CCCc3cccc(CC(=O)OC)c3)c2n1 [Example 10, 2-Butoxy-8-hydroxy-9-[3-(3-methoxycarbonylmethylphenyl)propyl]adenine] | 0.01 µM | <1% | 1%
COC(=O)Cc1cccc(Cn2c(O)nc3c(N)nc(OCC(O)CO)nc32)c1 (stereo not shown) [Example 11, 2-(2,3-Dihydroxy-1-propoxy)-8-hydroxy-9-(3-methoxycarbonylmethylbenzyl)adenine] | – | 20.9% | –
CCOCCOc1nc(N)c2nc(O)n(Cc3cccc(CC(=O)OC)c3)c2n1 [Example 12, 2-(2-Ethoxyethoxy)-8-hydroxy-9-(3-methoxycarbonylmethylbenzyl)adenine] | – | – | 0%
COC(=O)Cc1cccc(Cn2c(O)nc3c(N)nc(OCC4CCCCC4)nc32)c1 [Example 13, 2-Cyclohexylmethoxy-8-hydroxy-9-(3-methoxycarbonylmethylbenzyl)adenine] | – | – | 11%
COC(=O)CCc1nc(N)c2nc(O)n(Cc3cccc(CC(=O)OC)c3)c2n1 [Example 15, 8-Hydroxy-2-(2-methoxycarbonylethyl)-9-(3-methoxycarbonylmethylbenzyl)adenine] | – | – | 0%
CCCCOc1nc(N)c2nc(O)n(Cc3ccc(CC(=O)OC)s3)c2n1 [Example 16, 2-Butoxy-8-hydroxy-9-{(5-methoxycarbonylmethyl-2-thienyl)methyl}adenine] | – | – | 0%
CCCCOc1nc(N)c2nc(O)n(Cc3cccc(CC(=O)OC)n3)c2n1 [Example 18, 2-Butoxy-8-hydroxy-9-{(6-methoxycarbonylmethyl-2-pyridyl)methyl}adenine] | – | – | 0%
CCCCOc1nc(N)c2nc(O)n(Cc3cc(CC(=O)OC)ccn3)c2n1 [Example 19, 2-Butoxy-8-hydroxy-9-{(4-methoxycarbonylmethyl-2-pyridyl)methyl}adenine] | – | – | 0%
CCCCOc1nc(N)c2[nH]c(=O)n(Cc3cc(CC(=O)OC)ccc3OC)c2n1 [Example 20, 2-Butoxy-8-hydroxy-9-[(2-methoxy-5-methoxycarbonylmethyl)benzyl]adenine] | – | – | 0%
CCCCOc1nc(N)c2[nH]c(=O)n(Cc3ccc(F)c(CC(=O)OC)c3)c2n1 [Example 21, 2-Butoxy-9-[(4-fluoro-3-methoxycarbonylmethyl)benzyl]-8-hydroxyadenine] | – | – | 1%
CCCCOc1nc(N)c2[nH]c(=O)n(Cc3ccc(OC)c(CC(=O)OC)c3)c2n1 [Example 22, 2-Butoxy-8-hydroxy-9-[(4-methoxy-3-methoxycarbonylmethyl)benzyl]adenine] | – | – | 2%
Nc1nc(OCCCO)nc2c1nc(O)n2Cc1cccc(CC(=O)O)c1 [compound 4, 9-(3-Carboxymethylbenzyl)-8-hydroxy-2-(3-hydroxypropoxy)adenine, reference compound] | > 1 µM | – | –
Nc1nc(OCCO)nc2c1nc(O)n2Cc1cccc(CC(=O)O)c1 [compound 5, 9-(3-Carboxymethylbenzyl)-8-hydroxy-2-(2-hydroxyethoxy)adenine, reference compound] | > 1 µM | – | –
CCCCOc1nc(N)c2nc(O)n(CCc3cccc(CC(=O)O)c3)c2n1 [compound 9, 2-Butoxy-9-[2-(3-carboxymethylphenyl)ethyl]-8-hydroxyadenine, reference compound] | 0.3 µM | – | –
CCCCOc1nc(N)c2nc(O)n(CCCc3cccc(CC(=O)O)c3)c2n1 [compound 10, 2-Butoxy-9-[3-(3-carboxymethylphenyl)propyl]-8-hydroxyadenine, reference compound] | 0.1 µM | – | –
